This assay has as its system PAKT/PKB (p-(S473) AKT) in H209 small cell lung carcinoma cells stimulated with Stem Cell Factor. The experiment in a line: PAKT/PKB Cytoblot Assay with H209 cells (SCF-stimulated p-(S473) AKT). It is filed as cell-based. The note with it: Homo sapiens, NCI-H209, compound 1 hour, SCF 25 ng/mL 5 minutes. On the procedure: PAKT/PKB Cytoblot Assay Protocol with H209 Cells
H209 small cell lung carcinoma cells in log phase were plated at 50,000 cells/well in 96-well poly-lysine coated, clear bottom/black-sided plates (BD Cat # 354640) in 100 μl RPMI medium containing 0.1% (w/v) BSA, and incubated overnight at 37° C. in 5% CO2 incubator. The following day, compounds (10 mM stock solutions in DMSO) were added to the plates to generate final concentrations of 0.0, 0.01, 0.03, 0.1, 0.3, 1.0, 3.0 and 10 μM for IC50 determinations and incubated for 1 hour at 37° C. Cells were then left untreated or stimulated with Stem Cell Factor (SCF: Biosource Cat # PHC2116) at a final concentration of 25 ng/mL for 5 minutes at 37° C. in 5% CO2 incubator. The media was then removed using a vacuum manifold and the cells were washed once with Tris Buffered Saline (TBS).
Cells were then fixed by adding 200 μl of cold 3.7% (v/v) formaldehyde in TBS to each well for 15 minutes at 4° C. After removal of the formaldehyde, the cells were treated with the addition of 50 μl of methanol (at −20° C.) to each well for 5 minutes. After removal of the methanol, […] of 1% (w/v) BSA in TBS was added to each well to block non-specific antibody binding sites and the plate was incubated at room temperature for 30 minutes.
After removal of the blocking buffer, 50 μl of p-(S473) AKT rabbit polyclonal antibody (Cell Signaling Cat # 9277S) was added at a dilution of 1:250 in 0.1% (w/v) BSA in TBS, and the plate was incubated at room temperature for 1 hour. Plates were then washed 3 times with cold TBS containing 0.05% (v/v) Tween 20 (TBS-T) and […] of Horseradish peroxidase (HRP)-conjugated goat-anti-rabbit antibody (Amersham Cat # NA934V) at a dilution of 1:250 in TBS-T was added and the plate was incubated at room temperature for 1 h. After washing with ice-cold TBS-T four times, 100 μl of Enhanced Chemiluminescence (ECL) reagent (Amersham Cat# RPN2209) was added to each well and mixed on a mini-orbital shaker for 1 min. The plate was then read on a Perkin Elmer Victor 5 Multilabel Counter (#1420-0421).

Where [1] appears, read: group: between 500 nM and 1 μM (units in value).

For the compound `COc1ccc(NCc2ccncc2)c(C(=O)Nc2ccc3c(c2)OC(F)(F)C(F)(F)O3)c1` [Example 1, 5-methoxy-2-[(pyridin-4-ylmethyl)amino]-N-(2,2,3,3-tetrafluoro-2,3-dihydro-1,4-benzodioxin-6-yl)benzamide], the IC50 (group: between 1 and 3 μM) fell in the range of 1000 to 3000 nM.
As for `O=C(Nc1ccc2c(c1)C(F)(F)OC(F)(F)O2)c1ccccc1NCc1ccncc1` [Example 2, 2-[(pyridin-4-ylmethyl)amino]-N-(2,2,4,4-tetrafluoro-4H-1,3-benzodioxin-6-yl)benzamide], for the setting “group: less than 500 nM”, the IC50 is below 500 nM.
The same measure, in the same setting: with `CNC(=O)c1cc(CNc2ccccc2C(=O)Nc2ccc3c(c2)OC(F)(F)C(F)(F)O3)ccn1` [Example 3, N-methyl-4-{[(2-{[(2,2,3,3-tetrafluoro-2,3-dihydro-1,4-benzodioxin-6-yl)amino]carbonyl}phenyl)amino]methyl}pyridine-2-carboxamide] the figure was below 500 nM; with `CNC(=O)c1cc(CNc2ccccc2C(=O)Nc2ccc3c(c2)C(F)(F)OC(F)(F)O3)ccn1` [Example 4, N-methyl-4-{[(2-{[(2,2,4,4-tetrafluoro-4H-1,3-benzodioxin-6-yl)amino]carbonyl}phenyl)amino]methyl}pyridine-2-carboxamide], below 500 nM; with `O=C(Nc1ccc2c(c1)OC(F)(F)O2)c1ccccc1NCc1ccncc1` [Example 5, N-(2,2-difluoro-1,3-benzodioxol-5-yl)-2-[(pyridin-4-ylmethyl)amino]benzamide], below 500 nM.
Same read-out and setting: as for `O=C(Nc1ccc2c(c1)OC(F)(F)C(F)(F)O2)c1ccccc1NCc1ccncc1` [Example 6, 2-[(pyridin-4-ylmethyl)amino]-N-(2,2,3,3-tetrafluoro-2,3-dihydro-1,4-benzodioxin-6-yl)benzamide], the figure is below 500 nM.
Under “group: between 1 and 3 μM”, `COc1cccc(C(=O)Nc2ccc3c(c2)OC(F)(F)C(F)(F)O3)c1NCc1ccncc1` [Example 7, 3-methoxy-2-[(pyridin-4-ylmethyl)amino]-N-(2,2,3,3-tetrafluoro-2,3-dihydro-1,4-benzodioxin-6-yl)benzamide] registered a half-inhibitory concentration (IC50) of 1000 to 3000 nM.
`COc1cccc(C(=O)Nc2ccc3c(c2)C(F)(F)OC(F)(F)O3)c1NCc1ccncc1` [Example 8, 3-methoxy-2-[(pyridin-4-ylmethyl)amino]-N-(2,2,4,4-tetrafluoro-4H-1,3-benzodioxin-6-yl)benzamide]: the half-maximal inhibitory concentration (IC50) under setting [1] lay within 500 to 1000 nM.
With `COc1cccc(NCc2ccncc2)c1C(=O)Nc1ccc2c(c1)OC(F)(F)C(F)(F)O2` [Example 9, 2-methoxy-6-[(pyridin-4-ylmethyl)amino]-N-(2,2,3,3-tetrafluoro-2,3-dihydro-1,4-benzodioxin-6-yl)benzamide], the IC50 (group: less than 500 nM) is below 500 nM.
On the same count and under the same terms, as for `COc1cccc(NCc2ccncc2)c1C(=O)Nc1ccc2c(c1)C(F)(F)OC(F)(F)O2` [Example 10, 2-methoxy-6-[(pyridin-4-ylmethyl)amino]-N-(2,2,4,4-tetrafluoro-4H-1,3-benzodioxin-6-yl)benzamide], the figure is below 500 nM; as for `COc1cccc(NCc2ccncc2)c1C(=O)Nc1ccc2c(c1)OC(F)(F)O2` [Example 11, N-(2,2-difluoro-1,3-benzodioxol-5-yl)-2-methoxy-6-[(pyridin-4-ylmethyl)amino]benzamide], below 500 nM.
Compound `O=C(Nc1ccc2c(c1)OC(F)(F)C(F)(F)O2)c1cccnc1NCc1ccncc1` [Example 12, 2-[(pyridin-4-ylmethyl)amino]-N-(2,2,3,3-tetrafluoro-2,3-dihydro-1,4-benzodioxin-6-yl)nicotinamide] gave an IC50 (group: less than 500 nM) below 500 nM.
For the setting “group: less than 500 nM”, `Cc1ccc(C(=O)Nc2ccc3c(c2)OC(F)(F)C(F)(F)O3)c(NCc2ccncc2)n1` [Example 13, 6-methyl-2-[(pyridin-4-ylmethyl)amino]-N-(2,2,3,3-tetrafluoro-2,3-dihydro-1,4-benzodioxin-6-yl)nicotinamide] showed an IC50 below 500 nM.
Same read-out and setting: as for `O=C(Nc1ccc2c(c1)OC(F)(F)C(F)(F)O2)c1cnccc1NCc1ccncc1` [Example 14, 4-[(pyridin-4-ylmethyl)amino]-N-(2,2,3,3-tetrafluoro-2,3-dihydro-1,4-benzodioxin-6-yl)nicotinamide], the figure is below 500 nM; as for `O=C(Nc1ccc2c(c1)OC(F)(F)O2)c1cccnc1NCc1ccncc1` [Example 15, N-(2,2-difluoro-1,3-benzodioxol-5-yl)-2-[(pyridin-4-ylmethyl)amino]nicotinamide], below 500 nM.
`O=C(Nc1ccc2c(c1)C(F)(F)OC(F)(C(F)(F)F)O2)c1cccnc1NCc1ccncc1` (centres unmarked) [Example 16, 2-[(Pyridin-4-ylmethyl)amino]-N-[2,4,4-trifluoro-2-(trifluoromethyl)-4H-1,3-benzodioxin-6-yl]nicotinamide] yielded an IC50 under setting [1] of 500 to 1000 nM.
In turn, `O=C(Nc1ccc2c(c1)OC(F)(F)C(F)(F)O2)c1ncccc1NCc1ccncc1` [Example 17, 3-[(Pyridin-4-ylmethyl)amino]-N-(2,2,3,3-tetrafluoro-2,3-dihydro-1,4-benzodioxin-6-yl)pyridine-2-carboxamide] yielded an IC50 (group: less than 500 nM) below 500 nM.
On the same count and under the same terms, with `O=C(Nc1ccc2c(c1)OC(F)(F)C(F)(F)O2)c1ccc(F)cc1NCc1ccncc1` [Example 18, 4-fluoro-2-[(pyridin-4-ylmethyl)amino]-N-(2,2,3,3-tetrafluoro-2,3-dihydro-1,4-benzodioxin-6-yl)benzamide] the figure was below 500 nM; with `O=C(Nc1ccc2c(c1)OC(F)(F)C(F)(F)O2)c1cc(F)ccc1NCc1ccncc1` [Example 19, 5-fluoro-2-[(pyridin-4-ylmethyl)amino]-N-(2,2,3,3-tetrafluoro-2,3-dihydro-1,4-benzodioxin-6-yl)benzamide], below 500 nM.
In turn, `O=C(Nc1ccc2c(c1)OC(F)(F)O2)c1cc(F)ccc1NCc1ccncc1` [Example 20, N-(2,2-difluoro-1,3-benzodioxol-5-yl)-5-fluoro-2-[(pyridin-4-ylmethyl)amino]benzamide] showed a concentration for half-maximal inhibition (IC50) (group: less than 500 nM) below 500 nM.
The same measure, in the same setting: with `O=C(Nc1ccc2c(c1)OC(F)(F)O2)c1ccc(F)cc1NCc1ccncc1` [Example 21, N-(2,2-difluoro-1,3-benzodioxol-5-yl)-4-fluoro-2-[(pyridin-4-ylmethyl)amino]benzamide] the figure was below 500 nM.
For the setting “group: less than 500 nM”, `N#Cc1cc(CNc2ccccc2C(=O)Nc2ccc3c(c2)OC(F)(F)C(F)(F)O3)ccn1` [Example 22, 2-{[(2-cyanopyridin-4-yl)methyl]amino}-N-(2,2,3,3-tetrafluoro-2,3-dihydro-1,4-benzodioxin-6-yl)benzamide] showed a 50% inhibitory concentration (IC50) below 500 nM.
As to `N#Cc1cc(CNc2ccccc2C(=O)Nc2ccc3c(c2)C(F)(F)OC(F)(F)O3)ccn1` [Example 23, 2-{[(2-cyanopyridin-4-yl)methyl]amino}-N-(2,2,4,4-tetrafluoro-4H-1,3-benzodioxin-6-yl)benzamide], the IC50 (group: less than 500 nM) was below 500 nM.
As for `CNC(=O)c1cc(CNc2ccccc2C(=O)Nc2ccc3c(c2)OC(F)(F)O3)ccn1` [Example 24, 4-{[(2-{[(2,2-difluoro-1,3-benzodioxol-5-yl)amino]carbonyl}phenyl)amino]methyl}-N-methylpyridine-2-carboxamide], the IC50 (group: less than 500 nM) is below 500 nM.
On to `N#Cc1cc(CNc2ccccc2C(=O)Nc2ccc3c(c2)OC(F)(F)O3)ccn1` [Example 25, 2-{[(2-cyanopyridin-4-yl)methyl]amino}-N-(2,2-difluoro-1,3-benzodioxol-5-yl)benzamide], for which, where the note is “group: less than 500 nM”, the IC50 is below 500 nM.
Consider `Cc1cc(CNc2ccccc2C(=O)Nc2ccc3c(c2)OC(F)(F)C(F)(F)O3)nc(Cl)n1` [Example 26, 2-{[(2-chloro-6-methylpyrimidin-4-yl)methyl]amino}-N-(2,2,3,3-tetrafluoro-2,3-dihydro-1,4-benzodioxin-6-yl)benzamide], for which the IC50 (group: between 1 and 3 μM) lay within 1000 to 3000 nM.
Still for that read-out and setting: with `N#Cc1cc(CNc2ccc(F)cc2C(=O)Nc2ccc3c(c2)OC(F)(F)C(F)(F)O3)ccn1` [Example 27, 2-{[(2-cyanopyridin-4-yl)methyl]amino}-5-fluoro-N-(2,2,3,3-tetrafluoro-2,3-dihydro-1,4-benzodioxin-6-yl)benzamide] the figure was 1000 to 3000 nM.
On to `N#Cc1cc(CNc2cc(F)ccc2C(=O)Nc2ccc3c(c2)OC(F)(F)C(F)(F)O3)ccn1` [Example 28, 2-{[(2-cyanopyridin-4-yl)methyl]amino}-4-fluoro-N-(2,2,3,3-tetrafluoro-2,3-dihydro-1,4-benzodioxin-6-yl)benzamide], for which the IC50 under setting [1] was in the range of 500 to 1000 nM.
`N#Cc1cc(CNc2cc(F)ccc2C(=O)Nc2ccc3c(c2)OC(F)(F)O3)ccn1` [Example 29, 2-{[(2-cyanopyridin-4-yl)methyl]amino}-N-(2,2-difluoro-1,3-benzodioxol-5-yl)-4-fluorobenzamide] showed a half-inhibitory concentration (IC50) (group: less than 500 nM) below 500 nM.

For the origin of these results see patent US20080293696A1, “2-Aminoarylcarboxamides Useful as Cancer Chemotherapeutic Agents” (Bayer Pharmaceuticals Corporation, priority 2004, published 2008).
